Tests used:
[1] = system: tyrosinase activity of normal human epidermal melanocytes; assay: Tyrosinase activity of normal human melanocytes in culture (72 h treatment, lysate, L-Dopa substrate, absorbance 450 nm); assay type: cell-based; conditions: for Stimulation of the tyrosinase activity: 72 h
Protocol: a) Melanocyte Culture Conditions:
Normal human epidermal melanocytes are cultured (9th passage) in melanocyte growth medium M2 supplemented with:
Promocell C24300 supplements
Penicillin 50 IU/ml and streptomycin 50 μg/ml (Invitrogen) under standard temperature conditions (37° C.) at 5% CO2.
b) Preparation of the Solutions of the Test Compound:
The final titre of the prepared solutions is 10 mM. The final test concentrations range from 0.1 to 10 μM (PGE2) and 1 to 10 μM (15-PGDH inhibitors).
c)Principle of the Tests:
The tests performed consist in measuring the […] alone or combined with PGE2* on the overall activity of tyrosinase. *PGE2 is a pigmentation modulator that is deactivated by the enzyme 15-PGDH.
The melanocytes are cultured in 96-well plates up to confluence (culture conditions described in a) and the supernatant of each of the wells is then removed and replaced with the medium containing the compounds to be evaluated.
Thus (in triplicate), the 15-PGDH inhibitor alone at 1 μM and 10 μM or, for each of these first conditions, in the presence of 0.1 μM, 1 μM or 10 μM of PGE2.
The cultures are maintained under these various conditions for 72 h, the supernatants are then removed and the cell lawns are washed with a phosphate buffer (pH=7.2). The cells are lysed with a pH 7.2 phosphate buffer containing 1% Triton X100.
The tyrosinase activity of each of the lysates is then estimated against a fungal tyrosinase range (Sigma T7755).
The methodology implemented uses L-Dopa as reaction substrate (45 minutes at 37° C.); the formation of melanin is assessed by measuring the absorbance at 450 nm.
In this test, two references are also evaluated: kojic acid (a tyrosinase inhibitor introduced at 0.1% into the culture medium) and isobutyl methyl xanthine (IBMX), a phosphodiesterase inhibitor which, by limiting the catabolism of cAMP, contributes towards increasing the overall tyrosinase activity as assessed in this test.

[2] = target: T1, type-1 15-PGDH (Homo sapiens, UniProt P15428); assay: Test on type-1 15-PGDH (spectrophotometric, NADH formation at 340 nm, PGE2 substrate); assay type: biochemical; conditions: 37° C., pH 7.4 Tris buffer, 1.5 mM β-NAD, 50 μM Prostaglandin E2
T1 construct: made in house
T1 sequence (P15428 1-266): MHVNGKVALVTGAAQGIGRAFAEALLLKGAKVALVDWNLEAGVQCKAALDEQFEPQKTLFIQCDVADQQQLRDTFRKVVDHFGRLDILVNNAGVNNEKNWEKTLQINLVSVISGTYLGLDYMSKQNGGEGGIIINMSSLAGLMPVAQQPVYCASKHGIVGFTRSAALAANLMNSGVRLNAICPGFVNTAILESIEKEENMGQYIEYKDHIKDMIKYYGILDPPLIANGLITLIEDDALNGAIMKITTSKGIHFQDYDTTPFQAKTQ
Protocol: For the purposes of the test, this suspension is thawed and stored in ice.
0.965 ml of this buffer (brought to 37° C. beforehand) is introduced into the cuvette of a spectrophotometer (Perkin-Elmer, Lambda 2) thermostatically maintained at 37° C., the measuring wavelength of which is set at 340 nm. 0.035 mL of enzymatic suspension at 37° C. is introduced into the cuvette concomitantly with the recording (corresponding to an increase in the optical density at 340 nm). The maximum reaction rate is recorded.

## CC(C)(C)c1ccc(Oc2ccccc2/C=C2\SC(=O)N=C2[O-])cc1.[Na+] [Compound 4, (5Z)-5-[2-(4-tert-butylphenoxy)benzylidene]-1,3-thiazolidine-2,4-dione]
[1]; Compound 4 1 μM + PGE2 0.1 μM
  Stimulation of the tyrosinase activity: +27%
[1]; Compound 4 1 μM + PGE2 1 μM
  Stimulation of the tyrosinase activity: +40%
[1]; Compound 4 1 μM + PGE2 10 μM
  Stimulation of the tyrosinase activity: +32%
[1]; Compound 4 1 μM alone
  Stimulation of the tyrosinase activity: +16%

## O=C1NC(=O)/C(=C\c2ccc(OCc3cccc(Cl)c3)cc2)S1 [Compound 13]
[2]
  IC50: 5 µM

## O=C1NC(=O)/C(=C/c2ccccc2Oc2ccc(Br)c(F)c2)S1 [Compound 14]
[2]
  IC50: 1.55 µM

## CCCCC[C@H](O)/C=C/[C@H]1[C@H](O)CC(=O)[C@@H]1C/C=C\CCCC(=O)O [PGE2, Prostaglandin E2, reference compound]
[1]; PGE2 alone at 0.1 μM
  Stimulation of the activity of tyrosinase: +3%
[1]; PGE2 alone at 1 μM
  Stimulation of the activity of tyrosinase: +9%

Reference: patent US20070071699A1, “Benzylidene-1,3-thiazolidine-2,4-dione compounds for promoting and/or inducing and/or stimulating the pigmentation of keratin materials and/or for limiting their depigmentation and/or whitening” (L'OREAL, priority 2005, published 2007)
